Tested on: Tie2 in lung, kidney, liver homogenates
Assay: in vivo Tie2 phosphorylation in liver, lungs, kidneys
Design: species or system mouse
Description: Tumor-free mice were treated for 1 week with either vehicle, VT (250 ng/2 days), SU (60 mg/kg/day), or VT+SU and then sacrificed 5 h after their last doses of treatment. Tissue homogenates derived from EC-rich organs (livers, lungs, kidneys) were subjected to Tie2 immunoprecipitation and then immunoblotted for phosphorylated Tie2 (Fig8: ‘p-Tie2’) or total Tie2 (Fig8: ‘Tie2’).
Figure 8 In vivo Vasculotide treatments: effects on Tie2 receptor phosphorylation in vascular-rich organs (liver, lungs, and kidneys) • Healthy non-tumor-bearing mice (n = 8–9 per group) were treated for 1 week with vehicle (Veh); Vasculotide 250 ng/2 days IP (VT); sunitinib 60 mg/kg/day PO (SU); or VT + SU. Tie2 immunoprecipitates from lung, kidney, or liver homogenates were pooled from two mice per treatment group and immunoblotted with an anti-Tie2 antibody (‘Tie2’) or an anti-phosphotyrosine antibody (‘p-Tie2’). • Densitometry analysis of immunoblots from (A). pTie2/Tie2 ratios were internally normalized to the vehicle group within each blot. Means ± SEM and P values (unpaired t-tests) are depicted. Source data are available online for this figure.
5. Bioluminescence imaging (BI) of tumor burden
For in vivo BI: Mice were injected intraperitoneally with 150mg/kg luciferin (Promega) 10 minutes prior to and anesthetized with isofluorane just before luminescent pseudocolor imaging (uniform settings: CCD camera locked at -105 °C, exposure=60s, f/1, subject size=1.5cm, bin=8, FOV=23.2cm, full image correction) using the IVIS 200 Imaging System (Caliper/PerkinElmer). Using the Living Image software (v2.50.1, Xenogen), weekly images were analyzed under uniform color range on grayscale photographic overlay. Total fluxes (photons/sec) were quantified within consistent regions of interest and statistically compared ideally at a timepoint before any deaths have occurred. […]
Quantification procedure involved visual survey of entire tissue sections and tallying of DAB-stained metastatic nodules sizes (# cells) at 20-40X on a Leica DM LB2 Microscope. […]

Compound	ratio of phosphorylated Tie2 relative to total Tie2 (pTie2/Tie2) (1 week, VT 250 ng/2 days IP, SU 60 mg/kg/day PO or VT + SU, liver, lungs, kidneys, n = 8–9, Fig8)	lung-specific pTie2/Tie2 vs. vehicle (VT 250 ng/2 days IP, 1 week, unpaired t-test, Fig8)	Tie2 phosphorylation, sunitinib effect (SU 60 mg/kg/day, stated in Discussion)
CHHHRHSF [Vasculotide, 4-armed maleimide-functionalized polyethylene glycol (PEG) backbone to link together four cysteine-capped T7 peptides, that is, CHHHRHSF]	did not increase the ratio of phosphorylated Tie2 relative to total Tie2	significantly lower	
CCN(CC)CCNC(=O)c1c(C)[nH]c(/C=C2\C(=O)Nc3ccc(F)cc32)c1C [sunitinib, reference compound]			inhibition of Tie2 phosphorylation
